Assays:
[1] = system: HCT116 cells; assay: ROS production and video-microscopy (H2DCF); assay type: cell-based, human; conditions: HCT116 loaded with H2DCF, 100 μM
Protocol: HCT116 cells pretreated or not for 20h with 1 mM BSO were loaded with 5 μM 2′,7′ dichloroflurescein diacetate (H2DCF). […] H2DCF fluorescence was excited with a LED light source (490 nm) and emitted light was collected at 520-550 nm. For video, H2DCF-loaded cells were washed with HBSS and kept for measurement in 2 μM H2DCF in HBSS.
For quantification the MetaMorph® software was used. ROIs were traced on representative cells and integrated fluorescence intensities were estimated. Values correspond to the average intensities of the ROIs and are expressed as the ratio F/FO, where F is the averaged intensity recorded at a given time and FO corresponds to an averaged intensity recorded on images captured before adding the compounds.

[2] = system: HCT116 cells; assay: Apoptosis and necrosis assay (DiOC2(3)/DAPI flow cytometry); assay type: cell-based, human
Protocol: (§1) Cells were seeded in 6-well tissue culture plates (2.5×10^5 cells/well). MDA-MB-453 and HCT116 cells were first pre-treated or not for 48 h with 1 mM BSO. […] Cell-conditioned culture media, that may contain detached cells, were then collected and attached cells were trypsinized. Cells were combined with their corresponding conditioned media and collected by centrifugation at 1500 rpm for 10 min at 4° C. […] Cell- and DNA-associated fluorescence signals were quantified using a FACS-Aria (BD Biosciences) and data were analyzed with the […] software (BD Biosciences).

[3] = system: MDA-MB-453 cells; assay: as above; assay type: cell-based, human; conditions: MDA-MB-453 without GSH depletion
Protocol: as §1

[4] = molecular target: T1, purified rat liver TrxR (Rattus norvegicus, UniProt O89049); assay: In vitro TrxR activity (DTNB reduction assay); assay type: biochemical; conditions: 100 μM Iniparib, 200 μM NADPH, up to 120 min
T1 construct: Wild type TrxR purified from rat liver was from Sigma-Aldrich Chemicals; purchased Sigma-Aldrich Chemicals; host or cells: rat liver (tissue-purified)

[5] = system: cytosol and mitochondria of HCT116 cells; assay: Subcellular fractionation: Iniparib-biotin labeling of cytosol and mitochondria; assay type: cell-based, human
Protocol: Cells were homogenized in an ice-cold buffer containing 10 mM Tris-HCl, pH 7.5, protease and phosphatase inhibitors, and 250 mM sucrose in the case of mitochondria preparation, using a glass dounce tissue grinder (30 strokes). After centrifugation at 1,000×g for 5 min at 4° C., homogenates supernatants were collected. For cytosol preparation the 1000×g supernatants were submitted to differential centrifugation in Tris-HCl buffer: a first centrifugation was carried out at 22,000×g for 20 min and the resulting supernatants were further centrifuged at 100,000×g for 60 min. The final supernatants were referred to as the cytosolic fractions.
FIG. 11A and FIG. 11B show HCT116 cells were pre-treated or not for 48 h with 1 mM BSO. Thereafter Iniparib-biotin at 100 μM was added for 4 h. Cell homogenates were then processed for cytosol preparation (FIG. 11A) or mitochondria immuno-purification (FIG. 11B).
Cell homogenates were then processed for cytosol preparation or mitochondria immuno-purification. […]

T1 sequence (O89049 whole entry): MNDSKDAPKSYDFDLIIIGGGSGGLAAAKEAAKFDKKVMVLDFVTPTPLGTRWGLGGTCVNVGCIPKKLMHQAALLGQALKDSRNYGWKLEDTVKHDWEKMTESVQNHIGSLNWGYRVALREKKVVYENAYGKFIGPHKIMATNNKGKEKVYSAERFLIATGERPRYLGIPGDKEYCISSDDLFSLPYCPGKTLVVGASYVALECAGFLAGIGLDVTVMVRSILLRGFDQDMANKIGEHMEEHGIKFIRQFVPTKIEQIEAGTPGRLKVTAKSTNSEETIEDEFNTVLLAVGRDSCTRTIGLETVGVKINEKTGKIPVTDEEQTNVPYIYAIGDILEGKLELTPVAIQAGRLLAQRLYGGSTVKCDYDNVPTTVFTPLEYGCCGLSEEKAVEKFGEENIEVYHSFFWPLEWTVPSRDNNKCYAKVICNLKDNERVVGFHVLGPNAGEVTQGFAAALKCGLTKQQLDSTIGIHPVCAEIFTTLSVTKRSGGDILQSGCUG

Row | SMILES | ROS production [1] | treatment time from which apoptotic phenotype clearly detected ([2]; GSH-depleted HCT116, 100 μM) [h] | cell death phenotype ([2]; GSH-depleted HCT116, 9 h, 100 μM) | apoptotic phenotype induction [3] | TrxR reductase activity [4] | in vitro labeling of isolated cytosolic fraction ([5]; 30 μM Iniparib-biotin, with or without NADH/NADPH) | protein targets in isolated cytosol and mitochondria ([5]; fractions from Iniparib-biotin treated HCT116 cells)
1 | NC(=O)c1ccc(I)c([N+](=O)[O-])c1 [Iniparib, 4-iodo-3-nitrobenzamide] | induced an increase in ROS production | 6 | induced both necrotic and late apoptotic related phenotypes | much slower than in HCT116 cells | time-dependent inhibition of its reductase activity |  | 
2 | O=C(CCCC[C@@H]1SC[C@@H]2NC(=O)N[C@@H]21)NCCNC(=O)c1ccc(I)c([N+](=O)[O-])c1 [Iniparib-biotin, 4-iodo-3-nitro-N-(2-(5-((3 aS,4S,6aR)-2-oxohexahydro-1H-thieno[3,4-d]imidazol-4-yl)pentanamido)ethyl)benzamide] |  |  |  |  |  | mainly when NADPH was added | present in both cell compartments
